Measurements: patent publication US20080254993A1, “Use of abscisic acid analogs to enhance growth control” (priority 2007, published 2008)

How the values were obtained:
[1] = system: Kentucky bluegrass; assay: Greenhouse study on Kentucky bluegrass: turfgrass height, clip weight, turfgrass quality (Example 1); format: in vivo
Procedure: Greenhouse studies were conducted at the Research Farm of Valent BioSciences Corporation (Long Grove, Ill.). Grasses were grown in pots (18 cm in diameter and 18 cm in height) filled with Promix BX (available from Premier Horticulture Inc. Quakertown, Pa.). Grass was irrigated daily by an overhead irrigation system. The irrigation system was set up with multiple Tornado Mist Spray Heads (10 GPH at 40 PSI-Wetted diameter, NDS/Raindrip, Woodland Hills, Calif.). Spray heads were 1-meter apart from each other and 75 cm above grass canopy. Grass was cut with a scissor at 2.5 cm height and fertilizer (1 g/L all purpose fertilizer 20-20-20, available from The Scotts Company, Marysville, Ohio) was applied once per week.
(§1) Chemical solutions were prepared with distilled water. Tween 20 (0.05% v/v) was used as the surfactant when necessary. Trinexapac-ethyl (commercial product Primo Maxx, 11.3% active ingredient) was purchased from Syngenta Crop Protection Inc. (Greensboro, N.C.). ABA analogs, 8′ acetylene-ABA, acid (PBI-524), 8′ acetylene-ABA, ester (PBI-429), 8′ cyclopropane ester (PBI-696), or Tetralone, first carbon tail acetylene, ester (PBI-702), were obtained from Plant Biotechnology Institute, National Research Council of Canada (Saskatoon, Saskatchewan, Canada).
(§2) Chemical solutions were foliar applied to the turfgrass canopy at the rate of 4-gallons/1000 square foot (or 0.163 L/m^−2) immediately after finishing the preparation of solutions. After treatment, turfgrasses were arranged in a randomized complete block experimental design. Turfgrass quality, turfgrass height or clip fresh weight was measured on assigned dates. Turfgrass quality was visually rated on a 0-9 scale based on the color, uniformity, and density of the grass with 0 as the worst and 9 as the best. Turfgrass height was measured as the distance between canopy surface and soil. Clippings were collected form each plot; all plots were cut to a uniform height.
(§3) All experiments were randomized complete block experimental design. Data were analyzed by analysis of variance. Duncan's new multiple range tests at α=0.05 were used for mean separations.
Kentucky bluegrass sod was purchased from Deak sod farms, Inc. (Union Grove, Wis.). Grass was grown in the greenhouse for 94 days for establishment. Turfgrass was treated with one time foliar application of 50 ppm PBI-524, PBI-429, PBI-696 or PBI-702 alone or in combination with 250 ppm trinexapac-ethyl. The turfgrass was cut every 7 days. Turfgrass quality, turfgrass height, and clip weight were measured on days 7 and 35 after treatment.

[2] = system: creeping bentgrass; assay: Golf course green field study on creeping bentgrass with PBI-429: turfgrass height, soil moisture, turf quality (Example 2); format: in vivo, Penncross creeping bentgrass; details: for Soil moisture / Turfgrass height / Turf quality: 50 ppm PBI-429 alone; for Soil moisture (in words) / Turfgrass height (in words): trinexapac-ethyl 25 ppm, PBI-429 50 ppm, alone or combined; for Turf quality: visual 0-9 scale, 9 best
Procedure: Field studies were conducted at the nursery green or the practice green at Countryside golf course (Mundelein, Ill.). Both greens were sand based and growing Penncross creeping bentgrass. Grass was managed with typical Illinois golf course management practices.
as §1, §2, §3
Trinexapac-ethyl (25 ppm) or PBI-429 (50 ppm) were one time foliar applied alone or in combination to creeping bentgrass in the golf course green to investigate their effect on turfgrass quality, growth inhibition and soil moisture.

[3] = system: tomato; assay: Tomato plant height, growth rate and leaf number, greenhouse (Example 5); format: in vivo, Tomato (variety: Rutgers)
Source text: The effect of ABA analog (PBI-429) and trinexapac-ethyl combinations on transpiration and growth inhibition of dicotyledonous (tomato) was also examined in the greenhouse condition. Tomato (variety: Rutgers) seeds were sown in 18-cell flat filled with Promix PGX (available from Premier Horticulture Inc. Quakertown, Pa.) and grown for 3 weeks to allow for germination and initial growth. Plants were then transplanted into pots (18 cm in diameter and 18 cm in height), filled with Promix BX (available from Premier Horticulture Inc. Quakertown, Pa.), and grown for one week before the chemical treatment. Plants received daily irrigation and weekly fertilizer (1 g/L all purpose fertilizer 20-20-20, available from The Scotts Company, Marysville, Ohio). During the chemical treatment, a 24 mL (4 mL/plant) solution was foliar sprayed on the tomato canopy. Leaf transpiration rates were measured using a LI-1600 Steady State Porometer (LI-Cor, Lincoln, Nebr.) at 3, 5, 7, 10, and 14 days after treatment. The leaf transpiration rate was normalized to the percentage of control plant to minimize the experimental errors caused by environmental factors. Plant height was measured at 0, 3, 5, 7, 10 and 14 days after treatment. The growth rate was calculated based on the changes of plant height in certain intervals. The plants were harvested and the leaf number was counted at 14 days after treatment.

[4] = 7 days after treatment, 50 ppm ABA analog alone
[5] = 35 days after treatment, 50 ppm ABA analog alone
[6] = 25 ppm PBI-429, 3 days after treatment
[7] = 25 ppm PBI-429, 5 days after treatment
[8] = 25 ppm PBI-429, 7 days after treatment
[9] = 25 ppm PBI-429, 10 days after treatment
[10] = 25 ppm PBI-429, 14 days after treatment
[11] = 50 ppm PBI-429, 3 days after treatment
[12] = 50 ppm PBI-429, 5 days after treatment
[13] = 50 ppm PBI-429, 7 days after treatment
[14] = 50 ppm PBI-429, 10 days after treatment
[15] = 50 ppm PBI-429, 14 days after treatment
[16] = 100 ppm PBI-429, 3 days after treatment
[17] = 100 ppm PBI-429, 5 days after treatment
[18] = 100 ppm PBI-429, 7 days after treatment
[19] = 100 ppm PBI-429, 10 days after treatment
[20] = 100 ppm PBI-429, 14 days after treatment
[21] = 200 ppm PBI-429, 3 days after treatment
[22] = 200 ppm PBI-429, 5 days after treatment
[23] = 200 ppm PBI-429, 7 days after treatment
[24] = 200 ppm PBI-429, 10 days after treatment
[25] = 200 ppm PBI-429, 14 days after treatment
[26] = PBI-429 25-200 ppm, trinexapac-ethyl 250-2000 ppm, alone or combined

`C#CC1(C)CC(=O)C=C(C)C1(O)/C=C/C(C)=C\C(=O)OC` (stereo not shown) [PBI-429, 8′ acetylene-ABA, ester] was tested, and the “Clip Weight” value [1, 4] was 0.4 g, the Turfgrass height [1, 4] was 5.8 cm and the Turfgrass quality ([1]; 7 days after treatment, 50 ppm ABA analog alone, visual 0-9 scale, 9 best) was 6.6. For the same compound, the “Turfgrass height and clip weight compared to the control (in words)” value ([1]; 7 days after treatment, trinexapac-ethyl 250 ppm, PBI-524 or PBI-429 50 ppm, alone or combined) was “reduced turfgrass height and clip weight compared to the control”, the “Clip Weight” value [1, 5] was 2.3 g and the Turfgrass height [1, 5] was 8.1 cm. The “Turfgrass height and clip weight (in words)” value [1, 5] was “no longer reduced turfgrass height and clip weight”, the Soil moisture ([2]; 4 days after treatment) was 13.3% and the Turfgrass height ([2]; 4 days after treatment) was 6.7 mm. For the same compound, the “Soil moisture (in words)” value ([2]; 4 days after treatment) was “increase soil moisture”, the “Turfgrass height (in words)” value ([2]; 4 days after treatment) was “reduced turfgrass height more than the combination of trinexapac-ethyl and PBI-429” and the Soil moisture ([2]; 7 days after treatment) was 13.1%. For the same compound, the Turfgrass height ([2]; 7 days after treatment) was 6.3 mm, the Turf quality ([2]; 7 days after treatment) was 7.1 and the “Soil moisture (in words)” value ([2]; 7 days after treatment) was “increase soil moisture”. The “Turfgrass height (in words)” value ([2]; 7 days after treatment) was “reduced turfgrass height similarly”, the Soil moisture ([2]; 38 days after treatment) was 12.9% and the Turfgrass height ([2]; 38 days after treatment) was 5.5 mm. The Turf quality ([2]; 38 days after treatment) was 8.0, the Plant height ([3]; 25 ppm PBI-429, 0 days after treatment) was 6.3 cm and the Growth rate [3, 6] was 0.8 cm/day. It also gave a Plant height [3, 6] of 8.6 cm, a Growth rate [3, 7] of 0.9 cm/day and a Plant height [3, 7] of 10.4 cm. For the same compound, the Growth rate [3, 8] was 1.2 cm/day, the Plant height [3, 8] was 12.8 cm and the Growth rate [3, 9] was 1.1 cm/day. For the same compound, the Plant height [3, 9] was 16.0 cm, the Growth rate [3, 10] was 1.2 cm/day and the Leaf number [3, 10] was 11.0. It also gave a Plant height [3, 10] of 20.7 cm, a Plant height ([3]; 50 ppm PBI-429, 0 days after treatment) of 6.3 cm and a Growth rate [3, 11] of 0.6 cm/day. The Plant height [3, 11] was 8.8 cm, the Growth rate [3, 12] was 0.6 cm/day and the Plant height [3, 12] was 10.0 cm. The Growth rate [3, 13] was 0.8 cm/day, the Plant height [3, 13] was 11.6 cm and the Growth rate [3, 14] was 0.8 cm/day. It also gave a Plant height [3, 14] of 13.9 cm, a Growth rate [3, 15] of 1.1 cm/day and a Leaf number [3, 15] of 11.0. The Plant height [3, 15] was 18.2 cm, the Plant height ([3]; 100 ppm PBI-429, 0 days after treatment) was 6.3 cm and the Growth rate [3, 16] was 0.6 cm/day. The Plant height [3, 16] was 8.4 cm, the Growth rate [3, 17] was 0.5 cm/day and the Plant height [3, 17] was 9.4 cm. For the same compound, the Growth rate [3, 18] was 0.7 cm/day, the Plant height [3, 18] was 10.8 cm and the Growth rate [3, 19] was 0.7 cm/day. It also gave a Plant height [3, 19] of 12.8 cm, a Growth rate [3, 20] of 0.9 cm/day and a Leaf number [3, 20] of 10.8. The Plant height [3, 20] was 16.2 cm, the Plant height ([3]; 200 ppm PBI-429, 0 days after treatment) was 6.4 cm and the Growth rate [3, 21] was 0.5 cm/day. The Plant height [3, 21] was 7.9 cm, the Growth rate [3, 22] was 0.4 cm/day and the Plant height [3, 22] was 8.7 cm. The Growth rate [3, 23] was 0.5 cm/day, the Plant height [3, 23] was 9.6 cm and the Growth rate [3, 24] was 0.4 cm/day. For the same compound, the Plant height [3, 24] was 10.9 cm, the Growth rate [3, 25] was 0.7 cm/day and the Leaf number [3, 25] was 10.5. For the same compound, the Plant height [3, 25] was 13.8 cm, the “Tomato leaf number (in words)” value ([3]; 14 days after treatment, PBI-429 25-200 ppm, trinexapac-ethyl 250-2000 ppm, alone or combined) was “only significantly reduced leaf number at the highest rate” and the “Tomato growth rate in terms of plant height (in words)” value [3, 26] was “decreased tomato growth rate”. The “Tomato plant height (in words)” value [3, 26] was “decreased tomato plant height”.
